target: T1, Lipoprotein-Related Phospholipase A2 (Lp-PLA2) in Human Plasma (Homo sapiens, UniProt Q13093); experiment: Determination of Lp-PLA2 in human plasma (Thio-PAF assay); type: biochemical; conditions: mixed human plasma, 2-thio-PAF substrate, 30 minutes pre-incubation at room temperature
T1 construct: 40 μL of equally-divided and thawed mixed human plasma is pre-added; from tissue; host or cells: mixed (pooled) human plasma
T1 sequence (Q13093 22-441): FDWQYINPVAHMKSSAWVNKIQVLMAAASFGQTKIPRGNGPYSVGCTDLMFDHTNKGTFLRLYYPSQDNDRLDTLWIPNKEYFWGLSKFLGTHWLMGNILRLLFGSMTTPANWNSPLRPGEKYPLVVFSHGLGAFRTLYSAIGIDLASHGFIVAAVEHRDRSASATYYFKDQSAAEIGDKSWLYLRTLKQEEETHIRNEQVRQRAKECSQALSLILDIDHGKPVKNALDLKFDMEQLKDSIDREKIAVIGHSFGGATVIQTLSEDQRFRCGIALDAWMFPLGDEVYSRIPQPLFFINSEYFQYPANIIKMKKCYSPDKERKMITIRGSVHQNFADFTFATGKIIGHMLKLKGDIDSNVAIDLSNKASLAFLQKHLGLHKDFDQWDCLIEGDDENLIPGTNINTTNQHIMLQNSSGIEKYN
Source text: Determination of Lipoprotein-Related Phospholipase A2 (Lp-PLA2) in Human Plasma.
Human plasma determination utilizes a thioester analogue of phosphatidylcholine (PAF), where hydrolysis leads to the formation of phospholipids containing free thiol groups. The amount of the thiol groups is continuously determined by reacting with CPM (7-diethylamino-3-(4′-maleimidophenyl)-4-methylcoumarin), which is maleimide with increased fluorescence after Michael addition of the thiol groups. This determination can detect the activity of Lp-PLA2 in human plasma, for example, determined by the specific inhibition of the Lp-PLA2 inhibitors.
Thio-PAF determination, as quenched 75 μL determination, is carried out. A compound source plate is prepared by preparing a 1:3 (volume) series of diluents of each compound in pure DMSO on a 96-well microplate. A Rainin multi-channel pipette is used to transfer 3 μL of a compound on the compound source plate into a 96-well microplate where 57 μL of a determination buffer is pre-added, and the compound on the source plate is diluted by 20 folds. The above determination buffer contains 50 mM HEPES (pH 7.4), 150 mM NaCl, and 1 mM CHAPS. A Rainin multi-channel pipette is used to transfer 1 μL of the compound subjected to 20-fold dilution into a 96-well Greiner 655076 (black) microplate where 40 μL of equally-divided and thawed mixed human plasma is pre-added. The plate is oscillated for 20 seconds in an Elisa plate oscillator to be mixed evenly. After 30 minutes of pre-incubation at the room temperature, a Rainin multi-channel pipette is used to add 10 μL of a substrate solution to a 96-well Greiner 655076 (black) microplate, and the substrate solution contains 2.5 mM 2-thio-PAF [from ethanol mother liquor], 32 μM CPM [from DMSO mother liquor] and 3.2 mM NEM (N-ethylmaleimide) [newly prepared in DMSO for each experiment] in a determination buffer composed of 50 mM HEPES (pH 7.4), 150 mM NaCl, and 1 mM CHAPS. After 2 minutes, 25 μL of a 5% trifluoroacetic acid (TFA) aqueous solution is used for quenching the reaction. The plate is centrifuged at 2000 rpm for 1 minute. A Biotek Synergy H1 (H1MF) Elisa reader is used to read the plate at ex:380/em:485. GraphPad Prism 6.0 and Excel are used for IC50 data, curve, and QC analysis.

SMILES | IC50
O=c1nc(OCc2ccc(Oc3ccnc(C(F)(F)F)c3)c(F)c2)cc2n1CC[C@]13CO[C@H](CN21)C3 [Example 1, (7aS,10S)-2-((3-fluoro-4-((2-(trifluoromethyl)pyrid-4-yl)oxy)benzyl)oxy)-6,7,10,11-tetra hydro-4H,8H-7a,10-methanopyrimido[6′,1′:2,3]pyrimido[6,1-c][1,4]oxazin-4-one] | 5 nM
O=c1nc(OCc2cc(F)c(Oc3ccnc(C(F)(F)F)c3)c(F)c2)cc2n1CC[C@]13CO[C@H](CN21)C3 [Example 3] | 7.7 nM
Cc1cc(Oc2c(F)cc(COc3cc4n(c(=O)n3)CC[C@]35CO[C@H](CN43)C5)cc2F)ccn1 [Example 4] | 11.2 nM
N#Cc1cc(COc2cc3n(c(=O)n2)CC[C@]24CO[C@H](CN32)C4)ccc1Oc1cccc(C(F)(F)F)c1 [Example 5] | 4.5 nM
O=c1nc(OCc2cc(F)c(Oc3ccnc(Cl)c3)c(F)c2)cc2n1CC[C@]13CO[C@H](CN21)C3 [Example 6] | 5 nM
O=c1nc(OCc2cc(F)c(Oc3ccnc(OC(F)(F)F)c3)c(F)c2)cc2n1CC[C@]13CO[C@H](CN21)C3 [Example 7] | 3.6 nM
O=c1nc(OCc2ccc(Oc3ccnc(C(F)F)c3)c(F)c2)cc2n1CC[C@]13CO[C@H](CN21)C3 [Example 8] | 8.1 nM
O=c1nc(OCc2cc(F)c(Oc3cnc(C(F)(F)F)nc3)c(F)c2)cc2n1CC[C@]13CO[C@H](CN21)C3 [Example 9] | 6.3 nM
N#Cc1cc(COc2cc3n(c(=O)n2)CC[C@]24CO[C@H](CN32)C4)ccc1F [Example 10] | 10.8 nM
O=c1nc(OCCc2ccc(Oc3ccc(Cl)c(C(F)(F)F)c3)cc2)cc2n1CC[C@]13CO[C@H](CN21)C3 [Example 11, (7aS, 10S)-2-(4-(4-chloro-3-(trifluoro-methyl)phenoxy)phenylethoxy)-6,7, 10,11-tetrahydro-4H,8H-7a,10-methanopyrimido [6′,1′:2,3]pyrimido [6,1-c][1,4]oxazin-4-one] | 8.9 nM
O=c1nc(OCc2cc(F)c(Oc3ccnc(C(F)(F)F)c3)c(F)c2)cc2n1CCC13CC(CN21)C3 [Example 12, 2-((3,5-difluoro-4-((2-(trifluoromethyl)pyrid-4-yl)oxy)benzyl)oxy)-6,7,9,10-tetrahydro-4H, 8H-7a,9-methano-pyrimido[1,6-a] pyrrolo[1,2-c]pyri-midine-4-one] | 8.3 nM
O=c1nc(OCc2ccc(Oc3ccnc(C(F)(F)F)c3)c(F)c2)cc2n1CCC13CC(CN21)C3 [Example 13, 2-((3-fluoro-4-((2-(trifluoromethyl)pyrid-4-yl)oxy)benzyl)oxy)-6,7,9,10-tetrahydro-4H,8H-7a,9-methanopyri-mido[1,6-a]pyrrolo [1,2-c]pyrimidine-4-one] | 8.3 nM
O=c1nc(OCc2cc(F)c(Oc3ccc(Cl)c(C(F)(F)F)c3)c(F)c2)cc2n1CCC13CC(CN21)C3 [Example 14, 2-((4-(4-chloro-3-(trifluoromethyl)phenoxy)-3,5-di-fluorobenzyl)oxy)-6,7,9,10-tetrahydro-4H,8H-7a,9-methanopyrimido [1,6-a]pyrrolo[1,2-c] pyrimidine-4-one] | 8.8 nM
Cc1cc(Oc2c(F)cc(COc3cc4n(c(=O)n3)CCC35CC(CN43)C5)cc2F)ccn1 [Example 15, 2-((3,5-difluoro-4-((2-methylpyrid-4-yl)oxy)benzyl)oxy)-6,7,9,10-tetra-hydro-4H,8H-7a,9-methanopyrimido [1,6-a]pyrrolo[1,2-c]pyrimidine-4-one] | 27.6 nM
N#Cc1cc(COc2cc3n(c(=O)n2)CCC24CC(CN32)C4)ccc1Oc1cccc(C(F)(F)F)c1 [Example 16] | 9.2 nM
O=c1nc(OCc2cc(F)c(Oc3ccnc(Cl)c3)c(F)c2)cc2n1CCC13CC(CN21)C3 [Example 17] | 21.5 nM
O=c1nc(OCc2cc(F)c(Oc3ccnc(OC(F)(F)F)c3)c(F)c2)cc2n1CCC13CC(CN21)C3 [Example 18] | 11 nM
O=c1nc(OCc2ccc(Oc3ccnc(C(F)F)c3)c(F)c2)cc2n1CCC13CC(CN21)C3 [Example 19] | 37 nM
